The source of these data is patent US12465582B2, “(S)-2-amino-6-((3-aminopropyl)amino)hexanoic acid (APL) for use in the treatment of non-alcoholic steatohepatitis (NASH), liver inflammation, hepatocellular ballooning, liver fibrosis and steatosis” (Temple University—Of The Commonwealth System Of Higher …, priority 2020, dated 2025).

The subject of assay [1] is C57BL/6J mice fed AMLN diet changed to HFD. Briefly: Liver function serum biomarkers in AMLN diet mouse model of NASH. Type of assay: in vivo. To be noted: 16 weeks (week 50-66). How it is done: C57BL/6 mice were maintained in cages and had free access to standard rodent chow (Cat #5053, obtained from Labdiet, Saint Louis, MO) and water. C57BL/6J mice were fed either CHOW (negative control) or amylin liver NASH (AMLN) diet (58% high fat, 25% carbohydrate, 2% cholesterol) for twenty (20) weeks. Beginning at twenty (20) weeks, animals fed AMLN diet were changed to HFD. At fifty (50) weeks, animals were treated twice daily (b.i.d.) with oral administration (p.o.) of either vehicle (positive control) or APL (treated).

The subject of assay [2] is C57BL/6J mice fed high fat/high fructose diet (HFD). The experiment in a line: Hepatic steatosis: liver histology (H&E, BODIPY/DAPI) in HFD mouse NASH model. The assay is classed as in vivo. From the text: As in Example 1, C57BL/6 mice (same sample of mice as in Example 1) were maintained in cages (5 mice per cage) and had free access to standard rodent chow (Cat #5053, obtained from Labdiet, Saint Louis, MO) and water (filtered and packed using a Hydrapak system) for 5 days. […] The APL dose was 200 milligram per kilogram (mg/kg) per day, administered as two 100 milligram per kilogram (mg/kg) body weight APL (p.o.b.i.d.). Animals were fed ad libitum. The animals were humanely euthanized, and the livers were removed for histological analysis. Liver samples in formalin were allowed to fix for 48 hours, and processed into FFPE blocks after fixations. Slides were stained with hematoxylin and eosin (H&E) and to immunostaining with BODIPY and DAPI to quantitate fat deposition and nuclei number using confocal microscopy. See, e.g., Rico et al, 2007, J Cell Physiol, 211(2):504-12; and Daemen et al, 2016, Mol Metab, 5(3) 153-63. The data are depicted in FIGS. 3, 4, and 5
FIG. 5D is the plot of fat deposition assessed using confocal microscopy. Measurements were made in 20×-magnification fields. More than 21 fields from three different animals from each group were analyzed: Chow-vehicle (#fields=26), HFD-Vehicle (#fields=25) and HFD-APL (#fields=23). Indirect measurement using imageJ (Schneider et al., 2012, Nature Methods 9(7): 671-675) was used to calculate fat deposition. Fat deposition was increased 3-fold in HFD/vehicle-treated mice compared with CHOW control mice and with HFD/APL-treated mice (***p<0.001).

The test system is the same in assay [3]. Briefly: Glucose tolerance test (GTT) in diet-induced obesity (HFD) mouse model of NASH. The settings on record: APL 200 mg/kg/day p.o. in two doses, 130 days. The assay is classed as in vivo. An excerpt: C57BL/6J mice 5 week old male mice obtained from Jackson Laboratories, Bar Harbor, ME, USA) were maintained in cages (5 mice per cage) and had free access to standard rodent chow (Cat #5053, obtained from Labdiet, Saint Louis, MO) and water (filtered and packed using a Hydrapak system) for 5 days until the start of the experiment. The animals were then randomly assigned to five groups (n=5 for each group) receiving different diets and treatments as shown in Table A for 130 days. Each treatment was administered p.o.b.i.d. The APL dosage administered to each animal was 200 milligrams per kilogram of body weight divided in two dosages per day, via oral gavage and the pioglitazone dosage received each animal was 20 milligrams per kilogram of body weight divided in two dosages per day, via oral gavage. “HFD” is high fat/high fructose diet, which contains 58% fat, 25% carbohydrate and 17% protein. HFD was obtained from Research Diets, Inc. “Chow” refers to standard rodent chow (Cat #5053, obtained from Labdiet, Saint Louis, MO). Animals were fed ad libitum, except during the GTT experiments.
At the conclusion of the experimental time period (78 days for rats and 130 days for mice), the animals were subjected to a glucose tolerance test (GTT) as follows. Animals were fasted for 5 hours, weights, and their tails were clipped to measure fasting blood glucose levels. Immediately after, glucose (2 mg/g body weight) was administered orally. Glucose levels were measured at 0, 15, 30, 45, 60, and 120 minutes after glucose administration. Glucose was measured using the AlphaTRAK 2 glucometer from Abbott

Assay [4] relates to Zucker (fa/fa) obese rats. The experiment in a line: Hepatic fibrosis: H&E and Mason trichrome liver histology in Zucker rat NASH model. The assay is classed as in vivo. To be noted: 100 mg/kg APL p.o. b.i.d., 78 days. From the text:
Zucker (fa/fa) obese rats and Zucker (Fa/fa) lean rats (7-week old male animals obtained from Charles Rivers Laboratories, Wilmington, MA, USA) were maintained in individual cages (1 rat per cage to encourage sedentary activity) and had free access to standard rodent chow (Cat #5053 obtained from Labdiet, Saint Louis, MO) and water for (filtered and packed using a Hydrapak system) for 7 days until the start of the experiment. Zucker (fa/fa) obese rats were randomly assigned to two groups: 1) vehicle p.o.b.i.d. (oral administration, twice a day) for 78 days; and 2) 100 milligram per kilogram (mg/kg) body weight APL (p.o.b.i.d.) for 78 days. Zucker (Fa/fa) lean rats served as control. The APL dosage was 100 mg/kg/day. Animals were fed ad libitum. The animals were humanely euthanized, and the livers were removed for histological analysis. Liver samples in formalin were allowed to fix for 48 hours, and processed into FFPE blocks after fixations. Slides were stained with hematoxylin and eosin (H&E) and Mason trichrome staining.

For assay [5] the following is noted: See WO 2018/049019 and US 2019/0192462; cited from earlier work.
Setting [6] is: HFD mice, APL 200 mg/kg/day p.o. b.i.d., 20 weeks.

SMILES strings stand for the structures.

As for `NCCCNCCCC[C@H](N)C(=O)O` [APL, (S)-2-amino-6-((3-aminopropyl)amino)hexanoic acid], in assay [1] (APL 50 mg/kg/day p.o. b.i.d.), the “serum ALP vs positive control” value is “significant reduction”, the “serum ALT vs positive control” value was “significant reduction”, the “serum AST vs positive control” value is on record as “significant reduction” and the “serum nonesterified fatty acids (NEFA) vs positive control” value was “significant reduction”. In addition, the “serum triglycerides vs positive control” value in assay [1] (APL 50 mg/kg/day p.o. b.i.d.) is reported as “significant reduction”. In addition, the “serum cholesterol vs positive control” value in assay [1] (APL 200 mg/kg/day p.o. b.i.d.) is on record as “significant reduction”. The “number of nuclei (DAPI) of HFD/vehicle mice compared to mice fed HFD and treated with APL” value in assay [2] (APL 200 mg/kg/day p.o. b.i.d., ***p<0.001) is “statistically significant fewer”. For the same compound, the “fat deposition, increase in HFD/vehicle-treated mice compared with HFD/APL-treated mice” value in assay [2] (APL 200 mg/kg/day p.o. b.i.d., confocal microscopy, ImageJ, ***p<0.001) came to 3 fold. For the same compound, in assay [2] (HFD mice treated with APL for 131 days, 20x magnification), the “hepatocyte ballooning induced by HFD in H&E liver sections (FIG. 3)” value is reported as “minimal or no ballooning”. In addition, in assay [2] (HFD mice, APL 200 mg/kg/day p.o. b.i.d.), the “anatomical structure of the liver, H&E (FIG. 5A)” value is “retained the normal anatomy of the liver”. Besides, the “hepatocyte fat accumulation, inflammatory infiltration and hepatocyte ballooning in H&E liver sections” value in assay [2] (HFD mice, APL 200 mg/kg/day p.o. b.i.d., 18 weeks, vs HFD vehicle) is on record as “less severe”. Also, in assay [2] (setting [6]), the “fat deposition, treated group vs negative control (chow vehicle)” value is “No significant statistical difference” and the “number of nuclei (hepatocytes), treated group vs negative control (chow vehicle)” value was “no statistical differences”. Also, the “AUC of GTT of HFD/vehicle mice compared to mice fed HFD and treated with APL” value in assay [3] (**p<0.01) is on record as “significantly higher”. Further, in assay [3] (HFD mice, any time point 0-120 min), the “blood glucose levels in GTT, treated vs negative control (chow vehicle)” value is listed as “no significant statistical difference”. In addition, the “blood glucose levels in GTT, treated vs positive control (HFD vehicle)” value in assay [3] (HFD mice, at 15-min (p<0.0001), 60-min (p<0.05), 120-min (p<0.001)) is on record as “significant statistical difference”. For the same compound, the “liver morphology, H&E (FIG. 8A)” value in assay [4] was “preserve the normal morphology of the liver”. In addition, the “liver collagen fibers, Mason trichrome blue staining (FIG. 8B/8C)” value in assay [4] (vs multiple collagen fibers with vehicle) is reported as “minimum blue staining”. Besides, in assay [5], the “affinity for 4-HNE” value is “high affinity”.
